{
  "source": "patent US12503426B2",
  "about": "“Synthetic derivatives of oleoyl-lysophosphatidylinositol (oleoyl-LPI) and uses thereof” (LIPOVEXA SRL, priority 2017, dated 2025)",
  "key": {"NCI-H716 cells": {"test_system": "NCI-H716 cells", "test": "GLP-1 secretion in NCI-H716 cells, in vitro human L cells model (Examples 30-33)", "format": "cell-based", "protocol": "(§1) To evaluate the GLP-1 biosynthesis and secreting capabilities of the compounds of formula I in vitro using the human-derived cell line NCI-H716, 50,000 such cells were seeded per well of a 24-well plate pre-coated with a thin layer of Matrigel (0.15 mg/ml) in RPMI complete (RPMI additioned with FBS 10%, Glucose 2 g/L, Glutamine 4 mM, Sodium Bicarbonate 2 g/L, Pen/Strep 1× pH 7.4 at 37° C.) and incubated at 37° C. in humidified 5% CO2 atmosphere to induce endocrine differentiation.\nAfter 48 hours, media was withdrawn and cells washed once with warm HBSS (Hank's balanced salt solution) and then incubated in duplicate for 2 hours with the different dilutions of the oleoyl-LPI, OEA, DMSO (as negative control), a test compound of formula I, and KR-62436 10 μg/ml, all dissolved in RPMI serum free (RPMI complete without FBS) at 37° C. in humidified 5% CO2 incubator. Supernatant were quickly collected on ice and stored at −80° C. before quantification of GLP-1 with a commercial ELISA (EMD Millipore) specific for active-GLP-1 species.\nas §1, with “1×pH” for “1× pH”\nAfter 48 hours, media was withdrawn and cells washed twice with pre-warm HBSS (Hank's balanced salt solution) and then incubated in duplicate for 2 hours with 250 μl of 20 μM of either oleoyl-LPI, DMSO (as negative control) or a test compound of formula I, and […], all dissolved in RPMI serum free (RPMI complete without FBS) at 37° C. in humidified 5% CO2 incubator. Compounds of formula I tested were ps297b, ps316a, ps318a, ps319a, ps321a and ps323.\nSupernatant were quickly collected on ice and stored at −80° C. before quantification of GLP-1 with a commercial ELISA (EMD Millipore) specific for active-GLP-1 species (e.g., GLP-1 (7-36) amide) and […]).\nCompounds of formula I were tested for GLP-1 secretion in NCI-H716 cells essentially as describe in examples 30 and 31 above. EC50 GLP-1 secretion readout results were standardized relative to maximum GLP-1 secretion obtained with oleoyl-LPI. EC50 readout results were rated as low GLP-1 secretion activity (0-20% of maximum GLP-1 secretion achieved with oleoyl-LPI), moderate (21-79% of maximum GLP-1 secretion achieved with oleoyl-LPI), and high GLP-1 activity (80% and more of maximum GLP-1 secretion achieved with oleoyl-LPI). Table 3 also outlines the R1, R2 and R3 substituents of the compounds of formula I."}, "wild type mice": {"test_system": "wild type mice", "test": "Oral Glucose GLP-1 secretion test", "format": "in vivo", "conditions": "oral gavage 20 mg/kg, samples 2 minutes post glucose load, N=3", "protocol": "Active GLP-1 levels were measured in samples collected 2 minutes post glucose load. N=3\nIn a slight variation on the above method GLP-1 measurement in mice can be carried out by Peripheral GLP-1 stimulation and measurement in C57bl/6J mice. After 6 hours of fasting, the mice are weighed, and drug volumes are calculated. […] At 2 minutes post-glucose gavage, a blood sample is collected from the submandibular vein into an EDTA coated prechilled tube containing a panel of protease inhibitors. The plasma is separated by spinning at 1,500 g for 20 minutes at 4 C. the plasma is then collected and snap frozen on dry ice and store at −20 C before proceeding with hormone quantification. For hormone quantification the samples are thawed and total GLP-1 levels are quantified, GLP1(7-36)amide+GLP-1(9-36)amide, in 20 μL of plasma with the commercial ELISA kit from Millipore EZGLP1T-36K. This method is also described in Windelov J A et al Diabetologia. […]\nMice were sampled at about 2 minutes post glucose load, 20 μl of arterial blood may be sampled in K3-EDTA and KR-62436 containing tubes to collect plasma and samples are quickly store at −80° C. Plasma samples of 4 to 6 animals may be pool together and assayed to quantify the levels of active GLP-1 (such as GLP-1 (7-36)amide) using commercially available ELISA kits. […] Active GLP-1 levels were measured in samples collected 2 minutes post glucose load. […]"}, "[1]": {"test_system": "colonic cells of the GI tract obtained from guinea pig", "test": "Ex vivo GLP-1 biosynthesis and secretion, guinea pig GI tract cells", "format": "cell-based", "protocol": "To test for this, a pregnant guinea pig was anesthetized with isoflurane and sacrificed via intra-cardial injection of pentobarbital. Colon and rectum were quickly collected and intraluminal content washed out with ice-cold HBSS. After a thorough cleansing from the faecal material, and gentle scraping of the internal mucosa, the tissue was minced into 3 to 5-millimetre pieces and resuspended into 50 ml of ice cold HBSS. Pellet was spun down and washed again in 50 ml of ice-cold HBSS. Supernatant was carefully removed, and the epithelial fragments were then resuspended for 30 minutes at 37° C. into a 5 ml solution of HEPES 25 mM, collagenase-P 1 mg/ml in HBSS, pH 7.4 at 37° C.\nThe tissue was then pelleted and resuspended further for about 30 to 40 additional minutes at 37° C. within a 10 ml solution of 1 mg/ml collagenase-P as above.\nAfter the digestion, about 40 ml of pre-warmed DMEM complete media was added (FBS 10%, glucose 4.5 g/L, glutamine 4 mM, sodium pyruvate 1 mM, HEPES 25 mM, sodium bicarbonate 3.7 g/L, Pen/Strep 1× and Ciprofloxacin 10 μg/ml pH 7.4 at 37° C.). Crypts and individual cells were isolated with a […] nylon strainer, spun down at 200 g for 5 minutes, resuspended into 10 ml of DMEM complete media and plated into 20 wells of a 24-well plate coated with a 3D gel of 3 mg/ml Matrigel (BD, Biosciences, Oxford, UK). After one day of incubation at 37° C. 5% CO2 in a humidified incubator, cells were washed with 500 μl of warm HBSS, and treated with 250 μl DMEM serum free (Complete medium without FBS) additioned with KR-62436 10 μg/ml and individually the following drugs or compounds: Forskolin and IBMX (20 μM each), oleoyl-LPI, and the two oleoyl-LPI analogs and/or derivatives ps297b (prepared as described in example 13) and ps316a (prepared as described in example 22) were all tested in quadruplicate at 20 μM.\nAfter a 2-hour long incubation at 37 C 5% CO2, the supernatants were collected on ice, and quickly stored at […]. Active GLP-1 levels (7-37 amide and 7-36) were quantified on 50 μl of supernatant with an ELISA commercial kit (EMD Millipore). DMSO was used as a negative control, the combination of Forskolin and IBMX was included as positive control activators GLP-1. GLP-1 levels measured were standardized against the DMSO control.\nThe EC50 levels each one of oleoyl-LPI, compound ps297b and compound ps316a were also measured in quadruplicates at the conclusion of the 2 hour incubation. Guinea pig cells obtained as described above were also incubated with […] in quadruplicates and subjected to 2-hour long incubation at 37 C 5% CO2 as described above and EC50 levels measured."}, "Danio rerio larvae": {"test_system": "Danio rerio larvae", "test": "Zebrafish toxicity test", "format": "in vivo", "conditions": "two-days old larvae treated for 3 days; heartbeat, movement, teratogenicity; preliminary experiment", "text": "About two-days old Danio rerio larvae may be dechorionated and treated for about 3 days with increasing amount of any synthetic compound of formula I or salt or solvate thereof of this invention. The cardiotoxicity effect of the compound or salt or solvate may be assessed by measuring the heartbeat, the movement, and teratogenicity (hatching rate, mortality rate (LD50). The experiment may be repeated for three times or more times e.g., with about 10 larvae per concentration tested.\nTwo-days old Danio rerio larvae were dechorionated and treated for 3 days with increasing amount of a synthetic compound of formula I such as ps297b."}},
  "note": "pEC50: −log10 of the molar value.",
  "data": [
    {"smiles": "CCCCCCCC/C=C\\CCCCCCCC(=O)Nc1ccc(-c2nnn[nH]2)cc1", "note": "[ps297b]", "values": [
      {"measurement": "GLP-1 biosynthesis and secretion from NCI-H716 L cells", "setting": "NCI-H716 cells; 20 μM, 2 hours, normalized against DMSO vehicle control", "value": "able to mediate GLP-1 biosynthesis and secretion"},
      {"measurement": "level of GLP-1 biosynthesis and secretion compared with oleoyl-LPI", "setting": "NCI-H716 cells; NCI-H716 cells, 20 μM, 2 hours", "value": "comparable to that of oleoyl-LPI"},
      {"measurement": "GLP-1 secretion Activity relative to oleoyl-LPI", "setting": "NCI-H716 cells; NCI-H716 cells, standardized relative to maximum GLP-1 secretion obtained with oleoyl-LPI", "value": "High (high GLP-1 activity (80% and more of maximum GLP-1 secretion achieved with oleoyl-LPI))"},
      {"measurement": "activity in inducing and/or increasing secretion of GLP-1 from cells of the GI tract", "setting": "NCI-H716 cells; summary statement, compared with oleoyl-LPI", "value": "equal to or higher than oleoyl-LPI"},
      {"measurement": "GLP-1 release (active GLP-1 levels)", "setting": "wild type mice", "value": "increasing GLP-1 release"},
      {"measurement": "GLP-1 biosynthesis and secretion ex vivo", "setting": "[1]; 20 μM, 2 hours, standardized against DMSO control", "value": "stimulated biosynthesis and secretion"},
      {"measurement": "stability after incubation ex vivo", "setting": "[1]; 2 hours incubation ex vivo", "value": "remained stable after 2 hours incubation ex vivo"},
      {"measurement": "pEC50", "setting": "[1]; Cavia porcellus, ex vivo incubation 2 hours, quadruplicates", "value": 4.52},
      {"measurement": "concentration with no sign of toxicity", "setting": "Danio rerio larvae", "value": "up to 200 micromolar"}
    ]}
  ]
}
